From PubChem BioAssay (NCI)
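Five compound concentrations were applied to cells in 96-well plates for 48 hours; endpoints were derived by simple linear interpolation of the resulting dose-response curve. TGI marks complete inhibition of growth.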

Assays:
Assay in all cases: NCI tumour cell line growth inhibition, 48 h
[1] = system: KM20L2 colon
[2] = system: PC-3 prostate
[3] = system: DMS 273 small cell lung
[4] = system: DLD-1 colon
[5] = system: M19-MEL melanoma
[6] = system: DU-145 prostate
[7] = system: P388/ADR leukemia
[8] = system: P388 leukemia
[9] = system: MDA-N
[10] = system: SN12K1 renal
[11] = system: RXF-631 renal
[12] = system: LXFL 529 NSCLC

Compound	TGI [1] [µM]	TGI [2] [µM]	TGI [3] [µM]	TGI [4] [µM]	TGI [5] [µM]	TGI [6] [µM]	TGI [7] [µM]	TGI [8] [µM]	TGI [9] [µM]	TGI [10] [µM]	TGI [11] [µM]	TGI [12] [µM]
COc1cc(/C=C/C(=O)Oc2ccccc2)ccc1C(=O)O/C=C/c1ccccc1	> 100	> 100	> 100	> 100	> 100	> 100	> 100	> 100	> 100	> 100		
CS(=O)(=O)CS(=O)(=O)OCCCl	1240	990	995	1450	937	748	447	306	470	963		
COc1cc(/C=N\O[Si](C)(C)C(C)(C)C)ccc1O[Si](C)(C)C(C)(C)C	> 100		> 100	> 100	> 100						71.6	> 100
O=C1c2ccc3c4ccccc4n(-c4ccccc4)c3c2C(=O)N1c1ccc(Cl)cc1	> 100		> 100	> 100	> 100						> 100	> 100
Cc1c(Cl)cccc1NC(=O)c1cccc([N+](=O)[O-])c1O	54.3		79.8	> 100	48						> 100	> 75.1
COc1cc(-c2nnc3n2NC=C(C(=O)O)S3)cc(OC)c1OC	> 100		> 82.9	> 79.9	> 100						> 100	> 100
NC(=S)N/N=C1\CCCC\C1=C/c1ccccc1	> 100		82.6	> 100	> 100						> 100	> 100
C[P+](C)(C)c1ccccc1	> 100		> 100	> 100	> 100						> 100	> 100
CSc1ccc2c(cc1=O)[C@@H](NC(=O)c1cc(O)c(O)c(O)c1)CCc1cc(O)c(O)c(O)c1-2	> 100		39.9	55.7	29.9						30.4	37.8
